Results on 17 compounds are retold here after ChEMBL document CHEMBL5038623, “Synthesis and bioactivities of new N-terminal dipeptide mimetics with aromatic amide moiety: Broad-spectrum antibacterial activity and high antineoplastic activity” (Eur J Med Chem, 2022).

Values after ≈ are worked out from the molar mass of the structure shown.

For one data set, the system named is Klebsiella pneumoniae. Kind of data set: Antibacterial activity against Klebsiella pneumoniae ATCC 700603 assessed as reduction in microbial growth after 24 hrs by broth dilution method. The class given is functional. (In general: Broth dilution looks for growth in wells or tubes with falling amounts of substance.)
Data set [1] concerns Escherichia coli. Kind of data set: Antibacterial activity against Escherichia coli ATCC25922 assessed as zone of inhibition incubated for 12 hrs by disc diffusion method. It is filed as functional, ATCC 25922. For orientation: Agar diffusion results depend on both activity and mobility in agar.
A short description of data set [2]: Hemolytic activity in rabbit RBC measured after 1 hrs by microplate reader assay. Particulars: rabbit red blood cells (RBC). It is filed as toxicity, cell-based, Oryctolagus cuniculus, Erythrocyte.
Data set [3] concerns Staphylococcus aureus. In words: Antibacterial activity against methicillin-resistant Staphylococcus aureus ATCC 33591 assessed as MIC incubated for 12 hrs.
The test system of data set [4] is Staphylococcus aureus. In words: Antibacterial activity against Staphylococcus aureus ATCC 6538 assessed as reduction in microbial growth after 24 hrs by broth dilution method. The class given is functional.
Data set [5] relates to Escherichia coli. In words: Antibacterial activity against Escherichia coli ATCC25922 assessed as reduction in microbial growth after 24 hrs by broth dilution method. The class given is functional. To be noted: ATCC 25922.
The nature of data set [6]: Selectivity index, HC50 for hemolytic activity in rabbit RBC to MIC for antibacterial activity against methicillin-resistant Staphylococcus aureus ATCC 33591. It is filed as toxicity. Particulars: rabbit red blood cells (RBC), read-out: Selectivity Index.
Data set [7] deals with Staphylococcus aureus. In words: Antibacterial activity against Staphylococcus aureus ATCC 6538 assessed as zone of inhibition incubated for 12 hrs by disc diffusion method. It is filed as functional.

A word on the MIC: it is the smallest concentration in the dilution series that meets the test's criterion for growth inhibition. As a reminder, the HC50 is the concentration giving 50% haemolysis. High values mean less damage to red cells, low ones more damage to red cells.

As for `C#Cc1cccc(NC(=O)[C@H](N)C(C)C)c1`, the MIC with Klebsiella pneumoniae came out at 20 µg/mL; in the data set with Staphylococcus aureus [3], 20 µg/mL (≈ 92.5 µM); with Staphylococcus aureus [4], 10 µg/mL; in the data set with Escherichia coli [5] it was 39 µg/mL. Also, the “diameter of the inhibition zone (DIZ)” value was 10 mm with Escherichia coli [1] and 11.5 mm with Staphylococcus aureus [7]. In data set [2], this compound registered an HC50 at 1 h of over 1250 µg/mL. The selectivity ratio in data set [6] was over 125.
As to `CC(C)[C@H](N)C(=O)Nc1ccc(I)cc1`, the MIC in the data set with Klebsiella pneumoniae came to 39 µg/mL; with Staphylococcus aureus [3] it was 20 µg/mL (≈ 62.9 µM); in the data set with Staphylococcus aureus [4] it was 20 µg/mL; in the data set with Escherichia coli [5] it was 39 µg/mL. The same compound came in with an HC50 at 1 h in data set [2] of 794 µg/mL. The selectivity ratio in data set [6] was found to be 39.7. Moreover, the “diameter of the inhibition zone (DIZ)” value in the data set on Staphylococcus aureus [7] is listed as 17.6 mm.
Regarding `CCCCCCNC(=O)[C@@H](N)C(C)C`, the MIC in the data set with Klebsiella pneumoniae came out at 78 µg/mL; in the data set with Staphylococcus aureus [3] it was 78 µg/mL (≈ 389 µM); with Staphylococcus aureus [4], 39 µg/mL; in the data set with Escherichia coli [5], 20 µg/mL. For the same compound, the “diameter of the inhibition zone (DIZ)” value in the data set with Escherichia coli [1] is 16.4 mm; in the data set on Staphylococcus aureus [7], 12 mm. For the same compound, the concentration for 50% haemolysis (HC50) at 1 h in data set [2] came to 392 µg/mL. Further, the selectivity ratio in data set [6] was found to be 10.
On to `C#Cc1ccc(NC(=O)[C@@H](N)C(C)CC)cc1` (stereo partly drawn), for which the MIC was 39 µg/mL in the data set with Klebsiella pneumoniae, 39 µg/mL (≈ 169 µM) in the data set on Staphylococcus aureus [3], 39 µg/mL in the data set on Staphylococcus aureus [4] and 20 µg/mL in the data set on Escherichia coli [5]. The “diameter of the inhibition zone (DIZ)” value in the data set with Escherichia coli [1] is given as 12.3 mm; in the data set with Staphylococcus aureus [7], 12 mm. Moreover, the HC50 at 1 h in data set [2] was 813 µg/mL. Besides, the selectivity ratio in data set [6] is 20.8.
With `C#Cc1cccc(NC(=O)[C@@H](N)C(C)C)c1`, the MIC with Klebsiella pneumoniae came out at 20 µg/mL; with Staphylococcus aureus [3] it was 20 µg/mL (≈ 92.5 µM); in the data set on Staphylococcus aureus [4], 10 µg/mL; with Escherichia coli [5], 10 µg/mL. Besides, the figures for the “diameter of the inhibition zone (DIZ)” value with Escherichia coli [1] and in the data set on Staphylococcus aureus [7] were 15.4 mm and 15.7 mm, respectively. The HC50 at 1 h in data set [2] turned out to be 836 µg/mL. In data set [6], the selectivity ratio is 83.6.
For `CC(C)[C@H](N)C(=O)Nc1ccc(F)cc1`, the MIC in the data set with Klebsiella pneumoniae, with Staphylococcus aureus [4] and with Escherichia coli [5] was 312 µg/mL in each case. The “diameter of the inhibition zone (DIZ)” value in the data set with Escherichia coli [1] and with Staphylococcus aureus [7] was 6 mm throughout. In data set [2], this compound came in with an HC50 at 1 h of over 1250 µg/mL. Besides, in data set [6], the selectivity ratio was over 4.
For `C#Cc1ccc(NC(=O)[C@@H](N)Cc2c[nH]c3ccccc23)cc1`, the MIC turned out to be 156 µg/mL in the data set on Klebsiella pneumoniae, 78 µg/mL (≈ 257 µM) with Staphylococcus aureus [3], 78 µg/mL in the data set with Staphylococcus aureus [4] and 156 µg/mL in the data set with Escherichia coli [5]. Also, the “diameter of the inhibition zone (DIZ)” value is reported as 6.5 mm with Escherichia coli [1] and 10 mm with Staphylococcus aureus [7]. The same compound showed an HC50 at 1 h in data set [2] of over 1250 µg/mL. The selectivity ratio in data set [6] was over 16.
On to `CC(C)[C@H](N)C(=O)Nc1ccc(Cl)cc1`, for which the MIC was determined as 156 µg/mL in the data set on Klebsiella pneumoniae, 78 µg/mL (≈ 344 µM) in the data set on Staphylococcus aureus [3], 78 µg/mL in the data set on Staphylococcus aureus [4] and 156 µg/mL in the data set on Escherichia coli [5]. The “diameter of the inhibition zone (DIZ)” value was found to be 10 mm with Escherichia coli [1] and 10.9 mm with Staphylococcus aureus [7]. The compound further yielded an HC50 at 1 h in data set [2] of over 1250 µg/mL. Besides, in data set [6], the selectivity ratio was over 16.
For the compound `C#Cc1ccc(NC(=O)[C@@H](N)CC(C)C)cc1`, the minimal inhibitory concentration (MIC) amounted to 10 µg/mL with Klebsiella pneumoniae, 10 µg/mL (≈ 43.4 µM) in the data set with Staphylococcus aureus [3], 5 µg/mL in the data set on Staphylococcus aureus [4] and 10 µg/mL in the data set with Escherichia coli [5]. Moreover, the “diameter of the inhibition zone (DIZ)” value in the data set on Escherichia coli [1] is given as 14.5 mm; in the data set with Staphylococcus aureus [7] it was 17.7 mm. The compound further returned an HC50 at 1 h in data set [2] of 789 µg/mL. Further, the selectivity ratio in data set [6] worked out at 158.
Turning to `CN[C@H](CC(C)C)C(=O)N[C@H]1C(=O)N[C@@H](CC(N)=O)C(=O)N[C@H]2C(=O)N[C@H]3C(=O)N[C@H](C(=O)N[C@H](C(=O)O)c4cc(O)cc(O)c4-c4cc3ccc4O)[C@H](O)c3ccc(c(Cl)c3)Oc3cc2cc(c3O[C@@H]2O[C@H](CO)[C@@H](O)[C@H](O)[C@H]2O[C@H]2C[C@](C)(N)[C@H](O)[C@H](C)O2)Oc2ccc(cc2Cl)[C@H]1O` [VANCOMYCIN], the MIC was 1250 µg/mL with Klebsiella pneumoniae, 1.25 µg/mL (≈ 0.863 µM) in the data set on Staphylococcus aureus [3], under 0.63 µg/mL in the data set on Staphylococcus aureus [4] and 156 µg/mL in the data set with Escherichia coli [5].
As for `Cc1ccc(NC(=O)[C@@H](N)C(C)C)cc1`, the MIC in the data set on Klebsiella pneumoniae, with Staphylococcus aureus [4] and in the data set on Escherichia coli [5] was over 1250 µg/mL each time.
In the case of `CC(C)[C@H](N)C(=O)Nc1ccc(Br)cc1`, the MIC in the data set on Klebsiella pneumoniae stood at 78 µg/mL; in the data set on Staphylococcus aureus [3], 78 µg/mL (≈ 288 µM); with Staphylococcus aureus [4], 39 µg/mL; in the data set with Escherichia coli [5], 39 µg/mL. For the same compound, the “diameter of the inhibition zone (DIZ)” value with Escherichia coli [1] and with Staphylococcus aureus [7] was 11.8 mm in each case. In data set [2], this compound registered an HC50 at 1 h of over 1250 µg/mL. In data set [6], the selectivity ratio is over 32.
Regarding `C[C@H]1COc2c(N3CCN(C)CC3)c(F)cc3c(=O)c(C(=O)O)cn1c23.C[C@H]1COc2c(N3CCN(C)CC3)c(F)cc3c(=O)c(C(=O)O)cn1c23.O` [LEVOFLOXACIN], the MIC is under 0.63 µg/mL in the data set on Klebsiella pneumoniae, 1.25 µg/mL with Staphylococcus aureus [3], 1.25 µg/mL with Staphylococcus aureus [4] and 2.5 µg/mL in the data set with Escherichia coli [5].
For the compound `C#Cc1ccc(NC(=O)[C@@H](N)Cc2ccccc2)cc1`, the MIC came to 39 µg/mL in the data set with Klebsiella pneumoniae, 10 µg/mL (≈ 37.8 µM) in the data set with Staphylococcus aureus [3], 10 µg/mL in the data set with Staphylococcus aureus [4] and 39 µg/mL in the data set with Escherichia coli [5]. Also, the entries for the “diameter of the inhibition zone (DIZ)” value in the data set on Escherichia coli [1] and with Staphylococcus aureus [7] were 10 mm and 13 mm, respectively. The HC50 at 1 h in data set [2] was over 1250 µg/mL. In data set [6], the selectivity ratio was over 125.
On to `CC(C)[C@H](N)C(=O)Nc1ccccc1`, for which the MIC in the data set on Klebsiella pneumoniae, in the data set on Staphylococcus aureus [4] and in the data set on Escherichia coli [5] was over 1250 µg/mL in each case.
As for `C#Cc1cccc(NC(=O)[C@@H](N)Cc2ccccc2)c1`, the MIC in the data set with Klebsiella pneumoniae came out at 39 µg/mL; with Staphylococcus aureus [3] it was 20 µg/mL (≈ 75.7 µM); in the data set with Staphylococcus aureus [4], 20 µg/mL; with Escherichia coli [5] it was 39 µg/mL. For the same compound, the results for the “diameter of the inhibition zone (DIZ)” value in the data set with Escherichia coli [1] and in the data set on Staphylococcus aureus [7] were 10 mm and 10.2 mm, respectively. This compound gave an HC50 at 1 h in data set [2] of over 1250 µg/mL. Moreover, in data set [6], the selectivity ratio was over 62.5.
As for `CC(C)C(NC(=O)[C@H](N)Cc1ccccc1)C(=O)O` (stereo partly drawn), the MIC in the data set with Klebsiella pneumoniae, with Staphylococcus aureus [4] and in the data set on Escherichia coli [5] was over 1250 µg/mL in each case. For the same compound, the “diameter of the inhibition zone (DIZ)” value in the data set with Escherichia coli [1] and with Staphylococcus aureus [7] was under 6 mm each time.
